Columns and labels:
[1] = Population PK analysis (NONMEM, three-compartment model), 12 healthy adults, 200 mg IV; format: in vivo; conditions: for CL, total clearance / AUC (dose/CL) / VC, central volume of distribution / Vss, steady-state volume of distribution: individual parameters; for CL, total clearance: n = 12; for 1st t1/2 / 2nd t1/2 / 3rd t1/2: three-compartment model
Protocol: (§1) A 200 mg dose of teicoplanin in 100 mL of normal saline was administered intravenously to subjects over 30 min. Venous blood samples (6 mL each) were collected into heparinized tubes at 33, 36, 45, and 90 min, and 4, 8, 48–120, and 168–240 h after starting the infusion. Eight sampling points were used per subject to analyze PK parameters via noncompartmental and population PK methods.
(§2) Plasma levels of teicoplanin were quantified using tandem mass spectrometry coupled with HPLC (HPLC-MS/MS). The analytical system utilized included an LC-40 HPLC unit from Shimadzu Co. (Kyoto, Japan) paired with a Gemini C18 analytical column from Phenomenex (Torrance, CA, USA). A SCIEX 4500 QTRAP mass spectrometer (Sciex, Redwood City, CA, USA) facilitated the MS-based detection. Calibration standards were prepared by combining 100 μL of a reference solution with 10 μL of a vancomycin internal standard (concentration of 100 μg/mL) in microcentrifuge tubes. To this mixture, 400 μL of acetonitrile was added to precipitate proteins, followed by vortex mixing for 60 s. Following centrifugation at 12,000 rpm for 2 min at 4 °C, the clear supernatant was diluted 10-fold with deionized water. A 10 μL sample of this solution was then introduced into the HPLC-MS/MS for analysis. In a parallel procedure for plasma samples, after the addition of the vancomycin internal standard and acetonitrile-induced protein precipitation, the sample was processed like that of the calibration standard preparation before HPLC-MS/MS analysis. The teicoplanin concentration in the plasma was determined by comparing the peak area ratio of teicoplanin to the internal standard and employed a batch-specific calibration curve equation, adjusted for 1/x^2 weighting.
The PK analysis of teicoplanin was completed using a nonlinear mixed-effects modeling technique with NONMEM software (version 7.5, ICON Clinical Research LLC, North Wales, PA, USA). Parameter estimation for both the observed and the unaccounted-for random effects was achieved by applying the First-Order Conditional Estimation with Interaction approach. This method facilitates the consideration of interactions between the unexplained interindividual variability (IIV) of PK parameters and the residual unexplained variability in the observed concentrations. To model the PK profiles of teicoplanin, we used one-compartment (ADVAN1 TRANS2), two-compartment (ADVAN3 TRANS4), and three-compartment (ADVAN11 TRANS4) models which were based on first-order kinetics, with the exception of zero-order infusion processes.
Model selection and evaluation were based on several criteria: NONMEM’s objective function values (OFVs), parameter estimate precision (reflected by relative standard errors), IIV shrinkage, diagnostic fit plots, visual predictive checks, and bootstrap analysis. For nested model comparisons, a decrease in OFV (ΔOFV) exceeding 3.84 (for a χ^2 distribution with one degree of freedom, df) or 5.99 (for a χ^2 distribution with two df) indicated meaningful improvements at a significance level of p < 0.05. The diagnostic plots for model assessment include conditional weighted residuals (CWRES) against time and population predictions (PRED), as well as actual observations compared with both PRED and individual predictions. Visual predictive checks (VPC) were conducted by matching the observed concentrations to the 80% prediction intervals from 1000 simulations based on the final PK model. The variability in the final predictions was determined by calculating the median and 95% confidence intervals for the PK parameters from 2000 bootstrap samples.
Significant covariates affecting PK parameters were determined using stepwise selection, with inclusion at p < 0.01 (ΔOFV < −6.635) and exclusion at p < 0.001 (ΔOFV > 10.83) for one df. Covariates had to show statistical and clinical relevance. […]

[2] = in vivo; cited from earlier work
Source text: This study had several limitations. First, a small sample size of 12 subjects was insufficient to detect a variety of meaningful covariates, although eGFR and body weight were identified as significant factors. Thus, future studies with larger patient cohorts will be needed to develop more robust models. […] This decision, aimed at enhancing model stability and interpretability, involved employing the FOCE-I method and facing challenges with other estimation methods due to our ...

[3] = human, in vivo; cited from earlier work
Protocol: In the second simulation, the PTA was determined for different LD and MD regimens to satisfy both criteria: a Ctrough greater than 20 mg/L and an AUC/MIC ratio of at least 800. Adopting a similar approach to the first simulation, we used two distinct LD and MD combinations. The proportion of patients achieving both therapeutic targets was continuously assessed from days 3 to 7 following the initiation of treatment.

[4] = cited from earlier work
Source text: In the present study, the PK profile of teicoplanin in healthy adults was characterized using a three-compartment model. Typically, in studies with sparse sampling designs, the PK profile of teicoplanin is often delineated using one- [15, 16] or two-compartment models; however, previous studies using dense sampling approaches have also applied a three-compartment model. Such models are characterized by three distinct slopes when plotted on a graph with the y-axis representing a logarithmic scale, corresponding to the composition of three exponential equations ...

[5] = 12 mg/kg every 12 h x4, then 12 mg/kg daily; median CLCR 113 mL/min; cited from earlier work
[6] = Single 200 mg IV infusion (30 min) PK in 12 healthy adults, noncompartmental analysis; format: in vivo, human; conditions: n = 12; for Cmax: plasma, HPLC-MS/MS
Protocol: as §1, §2
A noncompartmental analysis (NCA) was completed to evaluate the plasma concentration–time profiles of teicoplanin using the R programming language and the NonCompart package. The following PK parameters were assessed: maximum observed plasma concentration (Cmax), time of last measurable concentration (Tlast), concentration corresponding to Tlast (Clast), area under the plasma concentration–time curve (AUC) from the start of dosing to the last quantifiable concentration (AUClast), AUC from the start of dosing to infinity (AUCinf), area under the first moment curve (AUMC) from 0 h to the Tlast (AUMClast), AUMC extrapolated to infinity, based on the last observed concentration (AUMCinf), mean residence time from 0 h to infinite (MRTinf), total body clearance as determined through NCA (CLNCA), volume of distribution (Vd) determined via NCA (VzNCA), steady-state Vd determined via NCA (VssNCA), and terminal elimination half-life (t1/2λz). Cmax, Tlast, and Clast were determined directly from the observed data. AUClast and AUMClast were calculated employing the linear-up and log-down trapezoidal method. AUCinf was estimated by adding Clast/λz to AUClast, where λz is the terminal elimination rate constant, which was determined by log-linear regression of the terminal phase plasma concentrations. AUMCinf was calculated using the following formula: AUMClast + (Tlast × Clast)/λz + Clast/λz^2, MRTinf as AUMCinf/AUCinf—infusion time/2, CLNCA as dose/AUCinf, VzNCA as CLNCA/λz, VssNCA as MRTinf × CLNCA, and t1/2λz as ln(2)/λz.

[7] = human, in vivo; cited from earlier work; remark: listed apart in the source
Source text: Teicoplanin, along with the glycopeptide antibiotic vancomycin, has an important role in the treatment of Gram-positive bacterial infections, including those caused by methicillin-resistant Staphylococcus aureus (MRSA). […] Based on the European Medicines Agency’s summary of the product characteristics (SmPC) for teicoplanin, adults and the elderly with normal renal function have recommended specific do ...

## teicoplanin
[1]; 2000 bootstrap samples
  Q2, bootstrap median (95% CI): 4.45 (3.63–5.86) L/h
  Q3, bootstrap median (95% CI): 1.75 (1.44–2.13) L/h
  V1, bootstrap median (95% CI): 3.97 (3.15–4.62) L
  V2, bootstrap median (95% CI): 8.33 (7.07–9.85) L
  θ1 (CL), bootstrap median (95% CI): 0.693 (0.653–0.74) L/h
  θ2, bootstrap median (95% CI): 0.789 (0.422–1.16)
  θ7 (V3), bootstrap median (95% CI): 69.7 (55.8–82.6) L
  θ8, bootstrap median (95% CI): 1.73 (0.67–2.44)
[1]; final model estimate
  CL typical value θ1, CL = θ1 × (CE/105.27)^θ2, estimate: 0.693 L/h
  Q2 = θ4, intercompartmental clearance V1-V2, estimate: 4.45 L/h
  Q3 = θ6, intercompartmental clearance V1-V3, estimate: 1.76 L/h
  V1 = θ3, central volume of distribution, estimate: 3.96 L
  V2 = θ5, first peripheral volume, estimate: 8.24 L
  θ7, V3 = θ7 × (WT/67.85)^θ8, second peripheral volume, estimate: 69.8 L
  θ8, exponent of weight on V3, estimate: 1.73
[1]; healthy subjects
  VSS typical value (V1 + V2 + V3): 82.0 L
[1]; mean (CV%)
  CL, total clearance: 0.0107 (14.0%) L/h/kg
  AUC (dose/CL): 299 (16.0%) mg/L·h
  VC, central volume of distribution: 0.0644 (28.9%) L/kg
  Vss, steady-state volume of distribution: 1.21 (23.0%) L/kg
  1st t1/2: 0.345 (36.3%) h
  2nd t1/2: 4.12 (22.2%) h
  3rd t1/2: 103 (29.9%) h
[1]; median (IQR)
  CL, total clearance: 0.0104 (0.00961–0.0122) L/h/kg
  AUC (dose/CL): 300 (263–316) mg/L·h
  VC, central volume of distribution: 0.0649 (0.0526–0.0733) L/kg
  Vss, steady-state volume of distribution: 1.24 (1.06–1.34) L/kg
  1st t1/2: 0.317 (0.289–0.417) h
  2nd t1/2: 4.23 (3.78–4.83) h
  3rd t1/2: 97.9 (83.1–116) h
[2]
  linear PK range: 2 to 25 mg/kg
[3]
  patients achieving AUC ≥800 mg/L·h: 100%
[4]
  V1: 4.32 L
  V2: 8.35 L
  V3: 68.6 L
  VSS: 81.3 L
[4]; mean 64 years, 69.1 kg, CLCR 72 mL/min
  CL: 0.490 L/h
[5]
  steady-state Ctrough, median (range): 15.9 (8.8–29.9) mg/L
[6]; last 3 or 4 points, mean (CV%)
  t1/2λz, terminal elimination half-life: 54.6 (13.2%) h
[6]; mean (CV%)
  AUCinf: 307 (15.4%) mg/L·h
  AUClast: 273 (16.6%) mg/L·h
  AUMCinf: 22,700 (14.8%) mg/L·h^2
  AUMClast: 13,800 (16.0%) mg/L·h^2
  CLNCA: 0.0105 (15.2%) L/h/kg
  Clast: 0.431 (24.9%) mg/L
  MRTinf: 74.0 (12.8%) h
  VssNCA: 0.776 (19.6%) L/kg
  Cmax: 32.1 (12.9%) mg/L
[6]; median (IQR)
  AUCinf: 305 (279–332) mg/L·h
  AUClast: 270 (247–302) mg/L·h
  AUMCinf: 22,300 (20,200–23,200) mg/L·h^2
  AUMClast: 13,800 (12,300–15,000) mg/L·h^2
  CLNCA: 0.0103 (0.00896–0.0117) L/h/kg
  Clast: 0.422 (0.348–0.470) mg/L
  MRTinf: 76.7 (68.0–80.7) h
  Tlast: 192 (169–194) h
  VssNCA: 0.734 (0.661–0.859) L/kg
  t1/2λz, terminal elimination half-life: 55.0 (51.9–58.6) h
  Cmax: 30.9 (29.5–35.6) mg/L
[7]
  elimination half-life: 83 to 182 h

— paper PMC11053983, “Beyond One-Size-Fits-All: Tailoring Teicoplanin Regimens for Normal Renal Function Patients Using Population Pharmacokinetics and Monte Carlo Simulation” (Pharmaceutics, 2024)
